This note sets out measurements from patent publication US20240398771A1, “TREATMENT OF SCLERODERMA AND RAYNAUD'S SYNDROME” (Aisa Pharma, Inc., priority 2023, published 2024).

“Also recorded” adds a separate entry of the source.

For series [1], the system named is participants with SSc-RP. As to the kind of experiment: Adverse events and serious adverse events (safety, tolerability). Format: in vivo. An excerpt:
In this study, AEs and SAEs will be reported for all participants from the time of randomization until the completion of the Follow-up/EOS visit. Adverse events that are ongoing at the EOS visit will be marked as Not Recovered/Not resolved on the AE eCRF page.
An AE is any event, side effect, or other untoward medical occurrence that occurs in conjunction with the use of a medicinal product in humans, whether or not considered to have a causal relationship to this treatment. An AE can, therefore, be any unfavorable and unintended sign (that could include a clinically significant abnormal laboratory finding), symptom, or disease temporally associated with the use of a medicinal product, whether or not considered related to the medicinal product.
Severity of AEs will be graded by the Investigator as one of: • Mild (Grade 1): A type of AE that is usually transient and may require only minimal treatment or therapeutic intervention.
An SAE is an AE occurring during any study phase (i.e. baseline, treatment, washout, or follow-up), and at any dose of the study drug (active or placebo), that fulfills one or more of the following: • Results in death • It is immediately life-threatening • It requires in participant hospitalization or prolongation of existing hospitalization • It results in persistent or significant disability or incapacity • Results in a congenital abnormality or birth defect • It is an important medical event that may jeopardize the participant or may require medical intervention to prevent one of the outcomes listed above.
Adverse events will be coded using the most current version of the MedDRA® Version 22.0 or higher. The analysis of AEs will be based on the concept of treatment emergent AEs. Treatment emergent AEs will be tabulated by treatment group and will include the number of participants for whom the event occurred, the severity, and relationship to study drug. Treatment emergent AEs (TEAEs) leading to discontinuation and SAEs with onset after the start of study drug will also be summarized.
Treatment-emergent AEs (TEAEs) are defined as AEs that occur or worsen after the dose of study drug. If the timing of the start of an AE could not be determined unambiguously from the start or end dates provided, it will be assumed to be a TEAE. An AE is considered related if the relationship to either of the study drug has been indicated as possibly or probably or definite related by the investigator. An AE leading to study withdrawal is defined as an AE that cause a subject early terminated from the study. AEs will be identified as emerging in the following parts: • TEAEs for Part A will be those that started during Part A (i.e., from the first dose in Part A to end of follow up of Part A) • TEAEs for Part B will be those that started during Part B (i.e., from the first dose in Part B to end of follow-up of Part B).
• Incidence of treatment emergent adverse events (AEs) and serious adverse events (SAEs), including clinically significant vital signs. For Part A safety will be assessed from the time of randomization until 7 days following the last protocol dose. For Part B, participants will be followed for 28 days from the last study dose. • Serious adverse events will be monitored by a DSMB (Part A) and Drug Safety Officer (Part B) on an ongoing basis throughout the study. • Adverse events will be coded using the MedDRA and summarized by SOC, PT, and treatment group.

The test system of series [2] is participants with SSc-RP. As to the kind of experiment: SHAQ Visual Analog Scale - overall disease severity. Also noted: Overall Change in Severity, Baseline, Mean / Overall Change in Severity, Baseline, Median / Overall Change in Severity, Change from Baseline, Mean / Overall Change in Severity, Change from Baseline, Median: scale not given here. The format is in vivo, human. Here is the method: Results: Patients in the study were administered the Scleroderma Health Assessment Questionnaire (SHAQ) at the time of study entry and during clinic visits following the treatment period. The study is a two-part, parallel arm design, prospective, double-blind, randomized study conducted in Australia (Flinders Medical Center). 27 patients were randomized into the first phase of the study, following which a DSMB meeting was held, which reviewed data on the primary study endpoint and key Raynaud's secondary endpoints. Data on the SHAQ was not available for the DSMB to review. The mITT population, in which any data was available post treatment was 24 patients was the analysis population for this first part of the study. The second part (i.e., part B) of the study will randomize 36 patients in a double blind, randomized, prospective, placebo controlled, crossover study. In the first part (i.e., Part A) of the study for which data is presented, patients were randomized into 6 groups, cilnidipine at two doses (10 and 20 mg) alone and in combination with tadalafil 5 mg, tadalafil 5 mg alone, and placebo. […] The DSMB recommended that the study proceed into its double blind prospective cross overpowered second phase and compare cilnidipine 20 mg alone to placebo. […] Cilnidipine treatment may reduce patient-reported SSc disease disability compared to placebo • b. Cilnidipine treatment may reduce patient-reported SSc disease alternative disability compared to placebo • c. Cilnidipine treatment may reduce patient-reported SSc disease pain* compared to placebo • d. Cilnidipine treatment may reduce patient-reported SSc disease severity compared to placebo • e. Cilnidipine treatment may reduce patient-reported SSc disease skin ulcer severity rating compared to placebo • f Cilnidipine treatment may reduce patient-reported SSc disease breathing difficulty compared to placebo • g. […] SSc disease pain comprises not only pain from Raynaud's but joint pain, headache, odynophagia, back pain, pain from skin ulceration, and neuropathic pain). Table E includes results of the Scleroderma Health Assessment Questionnaire.

Where [3] appears, read: Tadalafil 5 mg, Modified ITT, Part A.
[4] abbreviates: Cilnidipine 10 mg, Modified ITT, Part A.
The mark [5] stands for this setting: Cilnidipine 20 mg, Modified ITT, Part A.
Setting [6] is: Pooled Cilnidipine (10 mg or 20 mg, N = 7), mITT Part A.

For `CN1CC(=O)N2[C@H](c3ccc4c(c3)OCO4)c3[nH]c4ccccc4c3C[C@@H]2C1=O` [Tadalafil], the “Adverse Events (AEs): worst AE by group” value in series [1] (tadalafil monotherapy group) is recorded as “Worst AE in tadalafil”. For the same compound, in series [2] (setting [3]), the “Overall Change in Severity, Baseline, Mean” value was determined as 3.600; the “Overall Change in Severity, Baseline, Median” value is 2.550; the “Overall Change in Severity, Change from Baseline, Mean” value was −0.850; the “Overall Change in Severity, Change from Baseline, Median” value was −0.650. Further, in series [2] (setting [3]), the “Overall Change in Severity, In Clinic Visit (Day 12), Mean” value was determined as 2.750; the “Overall Change in Severity, In Clinic Visit (Day 12), Median” value was found to be 1.500; the “Overall Change in Severity, Percent Change from Baseline, Mean” value is reported as −31.76%; the “Overall Change in Severity, Percent Change from Baseline, Median” value is listed as −36.22%.

As to `COCCOC(=O)C1=C(C)NC(C)=C(C(=O)OC/C=C/c2ccccc2)C1c1cccc([N+](=O)[O-])c1` (centres unmarked) [Cilnidipine, 1,4-dihydro-2,6-dimethyl,4-(3-nitrophenyl)-3,5-pyridinedicarboxylic acid 2-methoxyethyl (2 E)-3-phenyl-2-propenyl ester], the “Safety: withdrawals” value in series [1] (Cilnidipine 20 mg (n = 8)) stood at 1 withdrawal. Moreover, the “Safety: number of AE” value in series [1] (Cilnidipine 20 mg (n = 8), HA-mild) was 1AE (HA-mild;. Also, the “severity grade of adverse events” value in series [1] (Example 4) is reported as “only Grade 1 Adverse Events (AEs) were reported; also recorded: only mild (Grade 1) adverse events occurred”. In series [1] (Example 4, 10 mg and 20 mg, alone or in combination with tadalafil), the tolerability result is listed as “well tolerated; also recorded: good tolerability”. Moreover, the “overall adverse event rate / incidence of Adverse Events” value in series [1] (Example 4, all patients who received any dose of cilnidipine (n=17)) was determined as 17%. For the same compound, the “Safety: withdrawals” value in series [1] (Pooled Cilnidipine (n = 9)) is “T); no withdrawals”. Also, the “Safety: number of AE” value in series [1] (Pooled Cilnidipine (n = 9), AE in combo with T) is listed as 1AE (in combo with. In series [2] (setting [4]), the “Overall Change in Severity, Baseline, Median” value is 1.900; the “Overall Change in Severity, Change from Baseline, Mean” value is −0.900; the “Overall Change in Severity, Change from Baseline, Median” value is −0.950. Further, in series [2] (setting [5]), the “Overall Change in Severity, Baseline, Median” value was found to be 2.900; the “Overall Change in Severity, Change from Baseline, Median” value is −1.600; the “Overall Change in Severity, In Clinic Visit (Day 12), Median” value worked out at 1.200; the “Overall Change in Severity, Percent Change from Baseline, Median” value is listed as −60.00%. Moreover, in series [2] (Example 4, SHAQ, mITT Part A), the “patient-reported SSc disease severity compared to placebo” value was “may reduce”. For the same compound, in series [2] (setting [6]), the “SHAQ patient reported disease severity: Baseline, Mean (SD)” value was 2.700 (2.3424) and the “SHAQ patient reported disease severity: Baseline, Median” value is given as 2.900.
